Test results published in paper PMC13490399, “Induced ubiquitination of the partially disordered estrogen receptor alpha via a 14-3-3 directed molecular glue-PROTAC” (Nature Communications, 2026).
Entries after “also recorded” stand apart in the source; their conditions may differ.

Assays:
14-3-3σ/ERα complex [1] = target: T1, 14-3-3σ/ERα complex (Homo sapiens, UniProt P03372+P31947); settings: previously reported; read-out: EC50, binding to the 14-3-3σ/ERα complex; cited from earlier work
[2] = target: His-tagged VCB complex / biotinylated 14-3-3γ / ERα peptide (Homo sapiens, UniProt P03372+P40337+P61981); assay: TR-FRET assay of VCB recruitment to 14-3-3γ with ERα peptide; type: binding; settings: 20 µM ERα peptide, 50 nM His-VCB, 50 nM biotinylated 14-3-3γ
[3] = target: 14-3-3ζ/ERα(LBD_F) complex with CRL2^VHL (Homo sapiens, UniProt P03372+P40337+P63104, F591R/P592R/S305A); assay: In vitro ubiquitination assay (SDS-PAGE, western blot, Alexa Fluor 488 ubiquitin); type: biochemical; settings: for ubiquitination of the 14-3-3ζ/ERα(LBD_F) complex: Coomassie SDS–PAGE, quantified at 15 min
Description: Briefly, the 14-3-3ζ/ERα^(LBD_F) complex was incubated with recombinantly expressed and purified UBE1, UBE2D2, UBE2R1, CRL2^VHL and ubiquitin in the presence of ^MGPROTACs and analysed time-dependently using Coomassie-stained SDS–PAGE (Fig. 6a). Ubiquitin conjugation was rapid with higher molecular weight species evident within 5 min (Supplementary Fig. 21) and were quantified at 15 min by Coomassie-stained SDS–PAGE (Fig. 6b, c and Supplementary Fig. 22).
UBE2D2 was selected as a representative of the promiscuous UBE2D family which is known to work with Cullin RING E3 ligases such as CRL2^VHL[48]–[52]. The UBE2R family is known to be more apt at extending polyubiquitin chains[49]–[51], however recent studies have shown that UBE2R1 and UBE2R2 are also capable of installing the first ubiquitin on degrader-targeted substrates with CRL2^VHL[53],[54].
The reaction was quenched with reducing SDS sample buffer. The protein species were resolved by SDS-PAGE on a 10% bis-tris NuPAGE gel using MOPS running buffer, run at 175 V for 50 min. […] Proteins were transferred to a nitrocellulose membrane either by wet transfer at 90 V for 90 min, or using an iBlot 2 Gel Transfer Device (Invitrogen). […] For an example of presentation of the full scan blots, see Supplementary Fig. S23 or the Source Data file.

14-3-3σ/ERα complex [4] = target: T1, 14-3-3σ/ERα complex; assay: FA compound titration to 14-3-3σ/ERα phosphopeptide complex; type: binding; settings: 1 µM 14-3-3σ and 10 nM ERα peptide
NanoLuc–VHL [5] = target: T2, NanoLuc–VHL (Homo sapiens, UniProt P40337); assay: cell-based; settings: IC50, VHL probe displacement (BRET), live (non-permeabilized) MCF-7 cells, 4 h
14-3-3/ERα complex [6] = target: 14-3-3/ERα complex (Homo sapiens, UniProt P03372+P31947); assay: FA 14-3-3 titration to ERα peptide with compound, with or without VCB (14-3-3/ERα stabilization); type: binding; settings: for stabilization of the 14-3-3/ERα complex with VCB, VCB recruitment / stabilization of the 14-3-3/ERα interaction: 1 µM compound; for stabilization of the 14-3-3/ERα complex with VCB, VCB recruitment: 5 µM VCB; for stabilization of the 14-3-3/ERα interaction: without VCB
NanoLuc–VHL [7] = target: T2, NanoLuc–VHL; settings: MCF-7 cells, in-cell VHL target engagement
14-3-3/ERα complex [8] = assay: 14-3-3 immunoprecipitation–mass spectrometry (IP–MS) in MCF-7 cells; settings: MCF-7, 10 μM CV2a, 24 h; not statistically significant (p > 0.05)

In the case of `C=CC(C)(C)OC[C@H]1O[C@H](O[C@@H]2C3=C([C@H](C)CNC(C)=O)C[C@H](O)[C@]3(C)/C=C3/[C@@H](COC)CC[C@H]3[C@@H](C)[C@H]2O)[C@H](O)[C@@H](O)[C@@H]1O` [FC-NAc, 3′-deacetylated fusicoccin N-acetyl], the EC50 (14-3-3σ/ERα complex [1]) is given as 15 nM.
For `C=CC(C)(C)OCC1OC(OC2C3=C(C(C)CNC(=O)CCCCCCCCCCCCCCCCCC(=O)NC(C(=O)N4CC(O)CC4C(=O)NCc4ccc(-c5scnc5C)cc4)C(C)(C)C)CC(O)C3(C)C=C3C(COC)CCC3C(C)C2O)C(O)C(O)C1O` (stereo not drawn) [CV3a], the “VCB recruitment to 14-3-3, TR-FRET signal” value [2] was “markedly reduced recruitment” and the “ubiquitination of the 14-3-3ζ/ERα(LBD_F) complex” value [3] was “robust polyubiquitination”.
For `CC(=O)N[C@H](C(=O)N1C[C@H](O)C[C@H]1C(=O)NCc1ccc(-c2scnc2C)cc1)C(C)(C)C` [VH032, reference compound], the “binding to the 14-3-3/ERα complex” value (14-3-3σ/ERα complex [4]) was “did not engage the 14-3-3/ERα complex”.
For `C=CC(C)(C)OCC1OC(OC2C3=C(C(C)CNC(=O)CCOCCOCCOCCC(=O)NC(C(=O)N4CC(O)CC4C(=O)NCc4ccc(-c5scnc5C)cc4)C(C)(C)C)CC(O)C3(C)C=C3C(COC)CCC3C(C)C2O)C(O)C(O)C1O` (stereo not drawn) [CV2p], the “ubiquitination of the 14-3-3ζ/ERα(LBD_F) complex” value [3] was “robust polyubiquitination”, the “E2 requirement of ubiquitination” value ([3]; UBE2D2 vs UBE2R1) was “observed only with UBE2D2” and the “ubiquitination of assembled complex vs apo-14-3-3” value ([3]; up to 24 h) was “preferential ubiquitination of the assembled 14-3-3ζ/ERα^(LBD_F) complex over apo-14-3-3”. For the same molecule, the “binding to the 14-3-3/ERα complex” value (14-3-3σ/ERα complex [4]) was “highest apparent potency”.
With `C=CC(C)(C)OCC1OC(OC2C3=C(C(C)CNC(=O)CCC(=O)NC(C(=O)N4CC(O)CC4C(=O)NCc4ccc(-c5scnc5C)cc4)C(C)(C)C)CC(O)C3(C)C=C3C(COC)CCC3C(C)C2O)C(O)C(O)C1O` (stereo not drawn) [CV0a] the IC50 (NanoLuc–VHL [5]) was greater than 10000 nM and the “stabilization of the 14-3-3/ERα complex with VCB, VCB recruitment” value (14-3-3/ERα complex [6]) was “negatively cooperative”.
In the case of `C=CC(C)(C)OCC1OC(OC2C3=C(C(C)CNC(=O)CCCCCCCCCCCC(=O)NC(C(=O)N4CC(O)CC4C(=O)NCc4ccc(-c5scnc5C)cc4)C(C)(C)C)CC(O)C3(C)C=C3C(COC)CCC3C(C)C2O)C(O)C(O)C1O` (stereo not drawn) [(S-OH)-CV2a], the “VCB recruitment to 14-3-3, TR-FRET signal” value [2] is reported as “no TR-FRET signal”, the “ubiquitination of the 14-3-3ζ/ERα(LBD_F) complex” value [3] is reported as “completely abrogated ubiquitination” and the “stabilization of the 14-3-3/ERα complex with VCB, VCB recruitment” value (14-3-3/ERα complex [6]) is reported as “failed to recruit VCB”. For the same molecule, the “stabilization of the 14-3-3/ERα interaction” value (14-3-3/ERα complex [6]) was “stabilized the 14-3-3/ERα complex similarly to CV2a”.
With `C=CC(C)(C)OCC1OC(OC2C3=C(C(C)CNC(=O)CCCCCCCCCCCC(=O)NC(C(=O)N4CC(O)CC4C(=O)NCc4ccc(-c5scnc5C)cc4)C(C)(C)C)CC(O)C3(C)C=C3C(COC)CCC3C(C)C2O)C(O)C(O)C1O` (stereo not drawn) [CV2a] the “cell permeability” value (NanoLuc–VHL [7]) was “cell-permeable”, the “VCB recruitment to 14-3-3, TR-FRET signal” value [2] was “unable to recruit VHL in the absence of ERα peptide; also recorded: extended recruitment window” and the “ubiquitination of the 14-3-3ζ/ERα(LBD_F) complex” value [3] was “robust polyubiquitination”. For the same molecule, the “ERα enrichment in the 14-3-3 pull-down” value (14-3-3/ERα complex [8]) was ~ 2.5 fold, the “enhancement of ERα binding to 14-3-3, two-dimensional FA titration” value (14-3-3/ERα complex [6]; CV2a titration in the absence of VCB) was “up to 2.5 fold” and the “enhancement of ERα binding to 14-3-3, two-dimensional FA titration” value (14-3-3/ERα complex [6]; high CV2a and VCB concentrations) was “over 23 fold”.
For `COCC1CCC2C1=CC1(C)C(=C(C(C)CNC(C)=O)CC1O)C(OC1OC(CO)C(O)C(O)C1O)C(O)C2C` (stereo not drawn), the “stabilization of the 14-3-3/ERα interaction” value (14-3-3/ERα complex [6]) was “stabilizes the 14-3-3/ERα interaction”.
